Reference: patent US20160159814A1, “GLYCINE TRANSPORTER INHIBITOR” (TAISHO PHARMACEUTICAL CO., LTD., priority 2013, published 2016)
pIC50: −log10 of the molar value.

These molecules were tested against T1, human type 1 glycine transporter (GlyT1) (Homo sapiens, UniProt P48067) (assay: Glycine uptake inhibition experiment ([3H] glycine uptake in T98G cells expressing GlyT1)). Details: not given.
T1 construct: T98G cells (glioma cells) expressing human type 1 glycine transporter (GlyT1) were used; endogenous in cells; host or cells: T98G cells (human glioma cells)
T1 sequence (P48067 1-706): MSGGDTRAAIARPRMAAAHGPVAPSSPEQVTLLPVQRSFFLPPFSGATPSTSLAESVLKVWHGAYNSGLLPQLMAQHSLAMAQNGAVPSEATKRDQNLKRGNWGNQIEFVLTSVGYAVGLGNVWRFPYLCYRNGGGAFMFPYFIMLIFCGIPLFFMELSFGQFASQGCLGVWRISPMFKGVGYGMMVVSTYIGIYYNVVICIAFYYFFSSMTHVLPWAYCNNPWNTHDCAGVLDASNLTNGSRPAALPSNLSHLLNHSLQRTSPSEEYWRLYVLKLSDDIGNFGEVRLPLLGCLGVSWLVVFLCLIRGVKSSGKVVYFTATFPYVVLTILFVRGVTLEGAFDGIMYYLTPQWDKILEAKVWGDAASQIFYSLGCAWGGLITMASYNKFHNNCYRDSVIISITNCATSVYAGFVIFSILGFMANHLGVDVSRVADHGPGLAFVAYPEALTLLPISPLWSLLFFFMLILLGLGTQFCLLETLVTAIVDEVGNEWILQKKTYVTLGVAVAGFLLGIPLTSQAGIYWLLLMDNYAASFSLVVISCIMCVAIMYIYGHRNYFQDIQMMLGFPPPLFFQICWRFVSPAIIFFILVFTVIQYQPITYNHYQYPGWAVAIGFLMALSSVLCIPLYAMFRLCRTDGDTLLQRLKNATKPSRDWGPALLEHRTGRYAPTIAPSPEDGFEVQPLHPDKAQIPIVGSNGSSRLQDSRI
Type: cell-based
Experimental: Glycine Uptake Inhibition Experiment
A glycine uptake experiment was conducted in accordance with the method published in Neuron, 8, 927-935, 1992. In the experiment, T98G cells (glioma cells) expressing human type 1 glycine transporter (GlyT1) were used. The T98G cells were seeded in a 96-well plate at 2.0×10^4 cells/well and cultured overnight in a CO2 incubator. The test substance was dissolved in a 100% DMSO solution and then dissolved in a 10 mM HEPES buffer solution (pH 7.4) containing 150 mM sodium chloride, 1 mM calcium chloride, 5 mM potassium chloride, 1 mM magnesium chloride, 10 mM glucose and 0.2% bovine serum albumin. After removing the cell culture medium, the test substance was subjected to a 10-min pretreatment. Subsequently, the test substance and [^3H] glycine (final concentration: 250 nM) were added to the cells and reaction was performed at room temperature for 15 minutes. After the end of the reaction, the extracellular fluid was aspirated with a manifold to remove excess labeled glycine present outside the cells, and then the cells were lysed with a 0.5 M aqueous sodium hydroxide solution. The glycine content in the cells was determined by measuring the radioactivity in the cell lysate with a liquid scintillation counter. Glycine uptake in the presence of 10 μM ALX5407 was defined as non-specific uptake, and the value calculated by subtracting the amount of the non-specific uptake from the total uptake in the absence of 10 μM ALX5407 was defined as specific uptake. In addition, glycine uptake inhibitory activity (IC50 value) was calculated from an inhibition curve at the concentrations of each test substance ranging from 10^−9 to 10^−5 M. It should be noted that ALX5407 is an HCl salt of N-[(3R)-3-([1,1′-biphenyl]-4-yloxy)-3-(4-fluorophenyl)propyl]-N-methylglycine.

Point of comparison: O=C1N(Cc2ccnc(C(F)(F)F)c2)c2cccc(C(O)C(F)F)c2C1(F)F (single isomer, unassigned) [Compound 191, 4-(2,2-difluoro-1-hydroxyethyl)-3,3-difluoro-1-{[2-(trifluoromethyl)pyridin-4-yl]methyl}-1,3-dihydro-2H-Indol-2-one], pIC50 7.54. Against it:
- COc1cc(CN2C(=O)C(F)(F)c3c([C@H](C)O)cccc32)ncc1Cl [Compound 232, 1-[(5-chloro-4-methoxypyridin-2-yl)methyl)-3,3-difluoro-4-[(1S)-1-hydroxyethyl]-1,3-dihydro-2H-indol-2-one] — within 0.2 log units, 7.49
- N#Cc1cccc(CN2C(=O)C(F)(F)c3c(C(O)C(F)F)cccc32)n1 (single isomer, unassigned) [Compound 176, 6-{[4-(2,2-difluoro-1-hydroxyethyl)-3,3-difluoro-2-oxo-2,3-dihydro-1H-indol-1-yl]methyl}pyridine-2-carbonitrile] — within 0.2 log units, 7.39
- O=C1N(Cc2cncc(Cl)n2)c2cccc(C(O)C(F)F)c2C1(F)F (single isomer, unassigned) [Compound 172, 1-[(6-chloropyrazin-2-yl)methyl]-4-(2,2-difluoro-1-hydroxyethyl)-3,3-difluoro-1,3-dihydro-2H-indol-2-one] — within 0.2 log units, 7.62
- COc1ncc(CN2C(=O)C(F)(F)c3c([C@H](C)O)cccc32)cc1Cl [Compound 222, 1-[(5-chloro-6-methoxypyridin-3-yl)methyl]-3,3-difluoro-4-[(1S)-1-hydroxyethyl)-1,3-dihydro-2H-indol-2-one] — 0.53 log units higher, 8.07
- O=C1N(Cc2cc(C(F)(F)F)ccn2)c2cccc(C(O)C(F)F)c2C1(F)F (single isomer, unassigned) [Compound 159, 4-(2,2-difluoro-1-hydroxyethyl)-3,3-difluoro-1-{[4-(trifluoromethyl)pyridin-2-yl]methyl}-1,3-dihydro-2H-indol-2-one] — 0.26 log units lower, 7.28
- O=C1N(Cc2cncc(C(F)(F)F)c2)c2cccc(C(O)C(F)F)c2C1(F)F (single isomer, unassigned) [Compound 186, 4-(2,2-difluoro-1-hydroxyethyl)-3,3-difluoro-1-{[5-(trifluoromethyl)pyridin-3-yl]methyl}-1,3-dihydro-2H-indol-2-one] — 0.35 log units lower, 7.19
- COc1ccc(CN2C(=O)C(F)(F)c3c(C(O)C(F)F)cccc32)cn1 (single isomer, unassigned) [Compound 255, 4-(2,2-difluoro-1-hydroxyethyl)-3,3-difluoro-1-[(6-methoxypyridin-3-yl)methyl)-1,3-dihydro-2H-indol-2-one] — 0.38 log units lower, 7.16
- O=C1N(Cc2ccc(Cl)nc2)c2cccc(C(O)C(F)F)c2C1(F)F (single isomer, unassigned) [Compound 160, 1-[(6-chloropyridin-3-yl)methyl]-4-(2,2-difluoro-1-hydroxyethyl)-3,3-difluoro-1,3-dihydro-2H-indol-2-one] — 1.08 log units lower, 6.46
- O=C1N(Cc2cncc(Cl)c2)c2c(F)ccc(C(O)C(F)F)c2C1(F)F (single isomer, unassigned) [Compound 253, 1-[(5-chloropyridin-3-yl)methyl]-4-(2,2-difluoro-1-hydroxyethyl)-3,3,7-trifluoro-1,3-dihydro-2H-indol-2-one] — 0.21 log units lower, 7.33
- C[C@H](O)c1cccc2c1C(F)(F)C(=O)N2Cc1cnc(Cl)c(Cl)c1 [Compound 200, 1-[(5,6-dichloropyridin-3-yl)methyl]-3,3-difluoro-4-[(1S)-1-hydroxyethyl]-1,3-dihydro-2H-indol-2-one] — 0.53 log units higher, 8.07
- N#Cc1nc(CN2C(=O)C(F)(F)c3c(C(O)C(F)F)cccc32)ccc1F (single isomer, unassigned) [Compound 275, 6-{[4-(2,2-difluoro-1-hydroxyethyl)-3,3-difluoro-2-oxo-2,3-dihydro-1H-indol-1-yl]methyl}-3-fluoropyridine-2-carbonitrile] — 0.50 log units higher, 8.04

Same assay, conditions: glycine uptake inhibition

Point of comparison: C[C@H](O)c1cccc2c1C(F)(F)C(=O)N2Cc1ccc(F)nc1 [Compound 128, 3,3-difluoro-1-[(S-fluoropyridin-3-yl)methyl]-4-[(1S)-1-hydroxyethyl]-1,3-dihydro-2H-indol-2-one], pIC50 7.28. Against it:
- C[C@H](O)c1cccc2c1C(F)(F)C(=O)N2Cc1ccc2cc[nH]c2n1 [Compound 115, 3,3-difluoro-4-[(1S)-1-hydroxyethyl]-1-(1H-pyrrolo[2,3-b]pyridin-6-ylmethyl)-1,3-dihydro-2H-indol-2-one] — 0.27 log units lower, 7.01
- C[C@H](O)c1cccc2c1C(F)(F)C(=O)N2Cc1ccncc1 [Compound 64, 3,3-difluoro-4-[(1S)-1-hydroxyethyl]-1-(pyridin-4-ylmethyl)-1,3-dihydro-2H-indol-2-one] — 0.87 log units lower, 6.41
- O=C1N(Cc2cncc(Cl)c2)c2ccc(F)c(C(O)C(F)F)c2C1(F)F (single isomer, unassigned) [Compound 136] — 1.51 log units lower, 5.77
- C[C@H](O)c1cccc2c1C(F)(F)C(=O)N2Cc1ccc(C#N)cn1 [Compound 113, 6-({3,3-difluoro-4-[(1S)-1-hydroxyethyl]-2-oxo-2,3-dihydro-1H-indol-1-yl}methyl)pyridine-3-carbonitrile] — 1.25 log units lower, 6.03
- O=C1N(Cc2cncc(F)c2)c2cccc(C(O)C(F)F)c2C1(F)F (single isomer, unassigned) [Compound 144, 4-(2,2-difluoro-1-hydroxyethyl)-3,3-difluoro-1-[(5-fluoropyridin-3-yl)methyl]-1,3-dihydro-2H-indol-2-one] — 0.66 log units lower, 6.62
- O=C1N(Cc2cccc(Cl)n2)c2cccc(C3(O)CC3)c2C1(F)F [Compound 26, 1-[(6-chloropyridin-2-yl)methyl]-3,3-difluoro-4-(1-hydroxycyclo-propyl)-1,3-dihydro-2H-indol-2-one] — 1.46 log units lower, 5.82
- CC(O)c1cccc2c1C(F)(F)C(=O)N2Cc1ccnc(C#N)c1 (stereo not shown) [Compound 28] — 0.27 log units lower, 7.01
- C[C@H](O)c1cccc2c1C(F)(F)C(=O)N2Cc1cc(C#N)ccn1 [Compound 85, 2-({3,3-difluoro-4-[(1S)-1-hydroxyethyl]-2-oxo-2,3-dihydro-1H-indol-1-yl}methyl)pyridine-4-carbonitrile] — 0.90 log units lower, 6.38
- C[C@H](O)c1cccc2c1C(F)(F)C(=O)N2Cc1ccc(C(F)F)cn1 [Compound 131, 1-{[5-(difluoromethyl)pyridin-2-yl]methyl)-3,3-difluoro-4-[(1S)-1-hydroxyethyl]-1,3-dihydro-2H-indol-2-one] — 1.25 log units lower, 6.03
- CC(O)c1cccc2c1C(F)(F)C(=O)N2Cc1cncc(Cl)c1 (stereo not shown) [Compound 3, 1-[(5-chloropyridin-3-yl)methyl]-3,3-difluoro-4-(1-hydroxyethyl)-1,3-dihydro-2H-indol-2-one] — 0.21 log units higher, 7.49
- O=C1N(Cc2cncc(Cl)c2)c2ccc(F)c(C(O)C(F)F)c2C1(F)F (single isomer, unassigned) [Compound 135, 1-[(5-chloropyridin-3-yl)methyl]-4-(2,2-difluoro-1-hydroxyethyl)-3,3,5-trifluoro-1,3-dihydro-2H-indol-2-one] — within 0.2 log units, 7.24
- CC(c1cccc(Cl)n1)N1C(=O)C(F)(F)c2c([C@H](C)O)cccc21 (single isomer, unassigned) [Compound 52] — 0.80 log units lower, 6.48
- C[C@H](O)c1cccc2c1C(F)(F)C(=O)N2Cc1cccc(-n2nccn2)n1 [Compound 44, 3,3-difluoro-4-[(1S)-1-hydroxyethyl]-1-{[6-(2H-1,2,3-triazol-2-yl)pyridin-2-yl]methyl}-1,3-dihydro-2H-indol-2-one] — within 0.2 log units, 7.17
- O=C1N(Cc2cncc(Cl)c2)c2cccc(C(O)C(F)F)c2C1(F)F (single isomer, unassigned) [Compound 120, 1-[(5-chloropyridin-3-yl)methyl]-4-(2,2-difluoro-1-hydroxyethyl)-3,3-difluoro-1,3-dihydro-2H-indol-2-one] — within 0.2 log units, 7.24

Same assay, conditions: table section whose head prints (μm)

In the case of C[C@H](O)c1cccc2c1C(F)(F)C(=O)N2Cc1cc(C#N)c(F)cn1 [Compound 262, 2-{(3,3-difluoro-4-[(1S)-1-hydroxyethyl]-2-oxo-2,3-dihydro-1H-indol-1-yl}methyl)-5-fluoropyridine-4-carbonitrile], the pIC50 was 7.21.
